Where “and” joins values, the source holds several entries; their conditions need not be identical. Identical values can stand only once. Like-named read-outs stand apart in the source and are kept apart here.
Tests used:
[1] = system: P. falciparum Dd2-B2 clone; assay: microbe, parasite or virus in culture; type: cell-based, Plasmodium falciparum
Excerpt: Wells were monitored daily by smear during the first 7 days to ensure parasite clearance, during which media was changed daily. […] Whole-genome sequencing analysis employed MiSeq data from libraries of 2 × 300 bp paired end reads.

[2] = system: DSM265-selected recrudescent Dd2-B2 cultures (G7, F3); assay: Sensitivity of DSM265-selected bulk recrudescent cultures; type: cell-based, Plasmodium falciparum; conditions: for IC50: Plasmodium falciparum
PfAsnRS = PfAsnRS (Plasmodium falciparum, UniProt O96198); assay: biochemical; conditions: for ATP consumption: PfAsnRS, normalised to 1 (Fig 3C)
HsAsnRS = target: T1, HsAsnRS (Homo sapiens, UniProt O43776); assay: ATP consumption assay (Kinase-Glo), HsAsnRS; type: biochemical; conditions: for ATP consumption: HsAsnRS, normalised to 1 (Fig 3C)
T1 construct: HsAsnRS (residues M1–P548) and CDHsAsnRS (residues A98–P548); His6 (N, cleaved yes); made in house; host or cells: E. coli BL21 (DE3), pET11a
T1 sequence (O43776 1-548): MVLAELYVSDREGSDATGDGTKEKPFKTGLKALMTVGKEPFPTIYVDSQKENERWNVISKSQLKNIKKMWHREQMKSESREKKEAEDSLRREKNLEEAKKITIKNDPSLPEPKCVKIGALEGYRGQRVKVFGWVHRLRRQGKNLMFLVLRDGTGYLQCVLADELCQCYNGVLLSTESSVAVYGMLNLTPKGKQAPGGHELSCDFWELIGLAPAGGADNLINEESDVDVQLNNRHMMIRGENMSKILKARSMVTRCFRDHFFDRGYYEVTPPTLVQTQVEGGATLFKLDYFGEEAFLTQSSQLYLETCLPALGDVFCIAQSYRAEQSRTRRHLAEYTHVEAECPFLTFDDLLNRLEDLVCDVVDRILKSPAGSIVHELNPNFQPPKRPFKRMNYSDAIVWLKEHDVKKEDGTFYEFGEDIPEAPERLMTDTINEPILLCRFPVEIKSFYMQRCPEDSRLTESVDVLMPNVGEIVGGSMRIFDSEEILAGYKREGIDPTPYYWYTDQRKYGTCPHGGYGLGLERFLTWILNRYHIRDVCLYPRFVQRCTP

P. falciparum (3D7) = assay: Activity against P. falciparum 3D7 cultures, 72 h (PfLDH growth inhibition / flow cytometry); type: cell-based, Plasmodium falciparum
Protocol: Antimalarial activity against P. falciparum 3D7 was tested by TCGLS, Kolkata, India, using the lactate dehydrogenase (PfLDH) growth inhibition assay. […] Plates were shaken to ensure mixing and were placed in the dark at 21 °C for 20 min. […] P. falciparum strain (3D7) was obtained from BEI Resources.
Viability was assessed in the second cycle by flow cytometry, following labeling with 2 μM Syto-61 (Thermo Fisher Scientific)[48],[49]. Viability represents the parasitemia normalized to untreated and “kill” controls that were treated with 2 μM dihydroartemisinin (DHA; Sigma-Aldrich) for 48–72 h. For drug pulse assays, tightly synchronized Cam3.II-rev[50] parasites (1–1.5% parasitemia, 0.2% final hematocrit) were added to the plates and incubated for 6 h. Drugs were removed and the parasitemia assessed in the trophozoite stage of the next cycle.

Chain of PfAsnRS (O96198 entry or part of it): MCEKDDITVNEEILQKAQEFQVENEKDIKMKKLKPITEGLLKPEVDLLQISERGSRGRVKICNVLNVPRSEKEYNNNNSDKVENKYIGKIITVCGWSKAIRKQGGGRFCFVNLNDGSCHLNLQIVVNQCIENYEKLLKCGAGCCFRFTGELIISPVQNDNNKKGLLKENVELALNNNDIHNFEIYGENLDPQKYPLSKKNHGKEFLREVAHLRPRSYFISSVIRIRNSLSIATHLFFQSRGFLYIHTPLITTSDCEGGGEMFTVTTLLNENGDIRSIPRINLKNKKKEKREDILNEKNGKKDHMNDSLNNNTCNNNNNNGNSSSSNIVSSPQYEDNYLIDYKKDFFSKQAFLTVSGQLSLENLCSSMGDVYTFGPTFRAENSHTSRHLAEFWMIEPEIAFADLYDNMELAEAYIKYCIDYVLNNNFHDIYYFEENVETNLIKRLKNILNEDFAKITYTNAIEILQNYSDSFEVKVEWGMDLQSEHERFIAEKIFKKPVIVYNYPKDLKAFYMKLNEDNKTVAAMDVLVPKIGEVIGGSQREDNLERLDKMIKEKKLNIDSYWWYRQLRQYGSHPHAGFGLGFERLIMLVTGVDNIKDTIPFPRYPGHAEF

`Cc1cc(Nc2ccc(S(F)(F)(F)(F)F)cc2)n2nc(C(C)(F)F)nc2n1` [DSM265] was tested, and the IC50 ([1]; Plasmodium falciparum, DD2, read-out: Mean IC50 + SEM (N)) was 22.6 nM, the “Minimum Inoculum for Resistance (MIR)” value ([1]; reference selection at 5 × IC50 (58 nM), 2 × 10^5 parasites per well, 96 wells) was 1.4 × 10^6 parasites and the recrudescent wells ([1]; reference selection at 5 × IC50 (58 nM), 96-well plate) was 14 and 14/96. The “Fold Shift” value ([2]; DSM265_F3 vs Dd2-B2 parent) was 2.5, the “Fold Shift” value ([2]; DSM265_G7 vs Dd2-B2 parent) was 3.1 and the IC50 ([2]; read-out: Mean IC50 + SEM (N), recrudescent culture DSM265_F3) was 56.6 nM. For the same molecule, the IC50 ([2]; read-out: Mean IC50 + SEM (N), recrudescent culture DSM265_G7) was 71 nM.

With `Nc1ncnc2cc(-c3cccc(OS(N)(=O)=O)c3)sc12` [OSM-LO-80] the IC50 (PfAsnRS) was > 100000 nM, the ATP consumption (PfAsnRS; 0.1 μM OSM-LO-80, 0.1 µM) was 0.9991 and the ATP consumption (PfAsnRS; 1 μM OSM-LO-80, 1 µM) was 0.918 and 0.9991. For the same molecule, the ATP consumption (PfAsnRS; 3 μM OSM-LO-80, 3 µM) was 0.8254 and 0.8439, the ATP consumption (PfAsnRS; 10 μM OSM-LO-80, 10 µM) was 0.7121 and 0.7363 and the ATP consumption (PfAsnRS; 30 μM OSM-LO-80, 30 µM) was 0.597 and 0.5984. For the same molecule, the ATP consumption (PfAsnRS; 100 μM OSM-LO-80, 100 µM) was 0.5737 and 0.5517, the ATP consumption (HsAsnRS; 0.1 μM OSM-LO-80) was 0.9993 and 0.9657 and 0.9905 and the IC50 (HsAsnRS; 0.2 μM HsAsnRS, E. coli tRNA present, 37 °C, 1 h (Fig. 3C, D)) was > 100000 nM. For the same molecule, the ATP consumption (HsAsnRS; 1 μM OSM-LO-80) was 1 and 0.9892 and 0.9767, the ATP consumption (HsAsnRS; 3 μM OSM-LO-80) was 0.9847 and 1 and 0.9888 and the ATP consumption (HsAsnRS; 10 μM OSM-LO-80) was 1.009 and 0.9926 and 0.9928. The ATP consumption (HsAsnRS; 30 μM OSM-LO-80) was 0.9786 and 0.9717 and 1, the ATP consumption (HsAsnRS; 100 μM OSM-LO-80) was 0.9628 and 0.9785 and 0.9921 and the IC50 (P. falciparum (3D7); Plasmodium falciparum, 3D7, 72 h, read-out: Pf3D7 IC50(72 h), 72 h, mean ± SD or duplicate values) was 5100 ± 3200 nM. For the same molecule, the IC50 (P. falciparum (3D7); Plasmodium falciparum, 3D7, read-out: activity against 3D7 cultures, value of earlier manuscript version quoted by reviewer, peer review file) was 2100 nM and the IC50 (P. falciparum (3D7); read-out: Pf3D7 IC50 (72h), individual biological repeats (source data of Table 1)) was 1720 nM and 1700 nM and 8000 nM and 8040 nM and 8280 nM and 7950 nM and 2490 nM and 2410 nM.

— PMC10831071, “Reaction hijacking inhibition of Plasmodium falciparum asparagine tRNA synthetase” (Nature Communications, 2024)
